pIC50, pKd, pKi: −log10 of the molar value. Non-standard residues stand in square brackets, D forms with d. Residues, ends and D or L forms follow the SMILES beside them. pY = N[C@@H](Cc1ccc(OP(=O)(O)O)cc1)C(=O)O
Legend:
[1] = target: T1, ZAP70(SH2dom1.dom2.) (Homo sapiens, UniProt P43403); details: primary screen, 10 μM
T1 sequence (P43403 1-254 limits assumed): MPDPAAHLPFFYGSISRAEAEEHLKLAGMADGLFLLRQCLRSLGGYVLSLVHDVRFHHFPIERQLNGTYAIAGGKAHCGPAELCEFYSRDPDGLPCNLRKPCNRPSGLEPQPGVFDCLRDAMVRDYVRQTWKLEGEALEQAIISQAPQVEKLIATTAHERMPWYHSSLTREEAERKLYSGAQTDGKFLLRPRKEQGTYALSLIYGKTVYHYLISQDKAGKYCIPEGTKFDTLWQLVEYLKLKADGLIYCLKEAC

[2] = system: FYN; set-up: method as in Gay et al., International Journal of Cancer, 1999; details: ELISA; ref Gay et al., International Journal of Cancer, 1999; cited from earlier work
[3] = system: PIK3R1 (SH2dom.N-term.); set-up: method as in Gay et al., International Journal of Cancer, 1999; details: ELISA; ref Gay et al., International Journal of Cancer, 1999; cited from earlier work
[4] = target: STAT5A; set-up: method as in Bai et al., Cancer Cell, 2019; details: FP and BLI; ref Bai et al., Cancer Cell, 2019; cited from earlier work
[5] = target: STAT4; set-up: method as in earlier work; details: FP; ref Elumalai et al., Angewandte Chemie International Edition, 2015; cited from earlier work
[6] = target: STAT5B; set-up: method as in earlier work; details: FP; ref Elumalai et al., Angewandte Chemie International Edition, 2015; cited from earlier work

CC[C@H](C)[C@H](NC(=O)[C@H](CCC(=O)O)NC(=O)[C@H](CCC(=O)O)NC(=O)[C@H](Cc1ccc(OP(=O)(O)O)cc1)NC(C)=O)C(=O)N[C@@H](CCC(=O)O)C(N)=O [Ac-pYEEIE-NH2] (Ac-[pY]EEIE-NH2)
percent of DMSO vehicle control [1]: 134.0%

CC(=O)N[C@@H](Cc1ccc(CP(=O)(O)O)cc1)C(=O)NC1(C(=O)N[C@@H](CC(N)=O)C(=O)NCCCc2c(O)ccc3ccccc23)CCCCC1 [CGP78850]
pIC50 [2]: < 4.30
pIC50 [3]: < 4.30

NC(=O)CC[C@H](NC(=O)[C@@H]1CC[C@@H]2CCN(C(=O)CCCCCC#Cc3cccc4c3CN(C3CCC(=O)NC3=O)C4=O)C[C@H](NC(=O)c3cc4cc(C(F)(F)P(=O)(O)O)ccc4[nH]3)C(=O)N21)C(=O)NC(c1ccccc1)c1ccccc1 (stereo partly drawn) [SD-36]
pKd [4]: 5.21

O=C(COc1ccc2cc(C(=O)Nc3ccccc3)ccc2c1)NCc1ccc(OP(=O)(O)O)c(OP(=O)(O)O)c1 [Stafib-1]
pKi [5]: 5.48
pKi [6]: 7.36

Source: PMC12951562, “SH2scan: Mapping SH2 Domain-Ligand Binding Selectivity for Inhibitors and Degraders” (Journal of Medicinal Chemistry, 2026)
